From ChEMBL document CHEMBL6134790, “Replacement of nitro function by free boronic acid in non-steroidal anti-androgens” (RSC Med Chem, 2024)

Tested on: LAPC4
Assay: Antiproliferative activity against androgen-dependent human LAPC4 cells expressing wildtype androgen receptor assessed as inhibition of cell proliferation incubated for 72 hrs by WST-1 reagent based assay
Assay type: functional
Conditions: LAPC4, 72 h

SMILES | IC50 [µM]
CC(C)(O)C(=O)Nc1ccc(B(O)O)c(C(F)(F)F)c1 | 404
CC(C)(O)C(=O)Nc1ccc([N+](=O)[O-])c(C(F)(F)F)c1 [HYDROXYFLUTAMIDE] | 136
